Measurements as given in US12180192B2, “Modulators of THR-β and methods of use thereof” (ALIGOS THERAPEUTICS, INC., priority 2019, dated 2024).
Where two headings read alike, the source gives them in different places.

System: CPT1A gene expression in Huh-7 cells
Assay: Huh-7 differential gene expression, CPT1A RT-qPCR (Assay 3)
Format: cell-based
Details: Homo sapiens, Huh-7, 24 h; for EC50: read-out: Activity category Assay 3 EC50; for Emax: read-out: Activity category Assay 3 Emax
Procedure: Huh-7 Differential Gene Expression (Assay 3)
Fetal bovine serum (FBS) was incubated with washed resin (50 mg resin/mL FBS; resin weight is dry weight of resin prior to washing) for 5 hr at room temperature on a rotor. The FBS was separated from the resin via centrifugation and incubated with new, washed resin for 18 h at room temperature on a rotor.
Cell Culture and Drug Treatment
Huh-7 cells were cultured in DMEM (10-013-CM, Corning) supplemented with 10% FBS and 1% Pen-Strep at 37° C. under 5% C02. When 70-80% confluence was reached, the cells were removed by trypsinization. The medium was aspirated from the cell culture dish, the cell monolayer was washed with 1×PBS, and 0.05% trypsin, 0.53 mM EDTA (25-052-CV, Corning) solution was added to the dish. After 3 min incubation, the cells were detached completely by repeatedly pipetting solution onto the monolayer. Equal volume of DMEM supplemented with 10% rFBS and 1% Pen-Strep (TH-depleted DMEM) was added to the dish to inactivate the trypsin. The cell suspension was centrifuged at 350×g at room temperature for 3 min. The supernatant was aspirated out and the cell pellet was resuspended in TH-depleted DMEM. […] After 24 hr incubation, the media was replaced with treatment media. All compounds were serially diluted in DMSO and final concentrations were reached by dilution in TH-depleted DMEM (0.1% DMSO). The cells were incubated in treatment media for 24 hr. Treatments were performed in biological duplicates.
After 24 hr in treatment media, the cells were lysed directly on the culture plates and cDNA was produced using the TaqMan™ Fast Advanced Cells-to-CT™ Kit (A35374, Invitrogen) and following the manufacturer's protocol. RT-qPCR for CPT1A (Hs00912671_m1) and two housekeeping genes, ACTB (Hs01060665_g1) and TFG (Hs02832013_g1), was performed using TaqMan™ Fast Advanced Master Mix. RT-qPCR reactions were run on the qTOWER^3 84 G (Analytik Jena) in technical duplicates.
ΔRn values were obtained from the qPCRsoft384 1.0 software and CPT1A gene expression was quantified via the 2-ΔΔCt method. Dose-response curves were generated using GraphPad Prism 8 using four parameter logistic equation without top constraint to derive EC50 and Emax.

[1] = Table 6, Huh-7 cells, CPT1A, 24 hr treatment

| EC50 [1] [nM] | SMILES | Emax [1] [%] | EC50 [nM] | Emax [%] |
| --- | --- | --- | --- | --- |
| > 100 | CC(C)c1cc(Oc2c(Cl)cc(-n3nc(CC(=O)O)c(=O)[nH]c3=O)cc2Cl)n[nH]c1=O [Compound 13, 2-(2-(3,5-dichloro-4-((5-isopropyl-6-oxo-1,6-dihydropyridazin-3-yl)oxy)phenyl)-3,5-dioxo-2,3,4,5-tetra-hydro-1,2,4-triazin-6-yl)acetic acid] | > 75 |  |  |
|  | N[C@@H](Cc1cc(I)c(Oc2ccc(O)c(I)c2)c(I)c1)C(=O)O [Compound T3, triiodothyronine, reference compound] |  | < 100 | > 75 |
| < 100 | Nc1nn(-c2cc(Cl)c(Oc3cc(C4CCCC4)c(=O)[nH]n3)c(Cl)c2)c(=O)[nH]c1=O [Compound 42, 6-amino-2-(3,5-dichloro-4-((5-cyclopentyl-6-oxo-1,6-dihydropyridazin-3-yl)oxy)phenyl)-1,2,4-triazine-3,5(2H,4H)-dione] | 50 to 75 |  |  |
| < 100 | C#Cc1nn(-c2cc(Cl)c(Oc3cc(C(C)C)c(=O)[nH]n3)c(Cl)c2)c(=O)[nH]c1=O [Compound 11, 2-[3,5-dichloro-4-[(5-isopropyl-6-oxo-1H-pyridazin-3-yl)oxy]phenyl]-6-ethynyl-4H-1,2,4-triazine-3,5-dione] | > 75 |  |  |
